The source of these data is paper PMC3720870, “Chiral Hydroxylation at the Mononuclear Nonheme Fe(II) Center of 4-(S) Hydroxymandelate Synthase – A Structure-Activity Relationship Analysis” (PLoS ONE, 2013).

Molecules are shown by their SMILES.

The target of the test is T1, Hms (Streptomyces coelicolor, UniProt Q9Z4X7).
T1 construct: gene SCO3229; full-length, C-terminal Strep-tag II kept, expressed in E. coli BL21(DE3) from pKYB1; monomer, ~45 kDa
T1 sequence (Q9Z4X7 1-371): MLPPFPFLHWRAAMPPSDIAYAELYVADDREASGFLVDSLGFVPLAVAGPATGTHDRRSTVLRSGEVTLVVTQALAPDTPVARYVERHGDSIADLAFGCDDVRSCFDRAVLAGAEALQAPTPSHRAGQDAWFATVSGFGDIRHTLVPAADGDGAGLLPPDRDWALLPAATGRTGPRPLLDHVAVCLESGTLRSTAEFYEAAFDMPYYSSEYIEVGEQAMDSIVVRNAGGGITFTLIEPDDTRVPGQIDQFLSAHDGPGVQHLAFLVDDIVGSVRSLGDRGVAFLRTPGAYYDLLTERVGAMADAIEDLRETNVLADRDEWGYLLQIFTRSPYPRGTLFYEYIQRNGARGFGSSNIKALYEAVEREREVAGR
In words: O2 consumption, micro-optode, steady state. The format is biochemical. The settings on record: apparent constant at air saturation; 20 mM Tris/HCl pH 7.5, 25 °C; no added Fe(II).
The Km is the concentration of substrate that gives half-maximal velocity. For `O=C(O)C(=O)CCc1ccccc1` [OPB, 2-Oxo-4-phenylbutanoic acid], the Km was 35 ± 20 µM. `O=C(O)C(=O)Cc1ccccc1` [PP, Phenylpyruvic acid]: the Km turned out to be 353 ± 87 µM. Regarding `COc1ccc(CC(=O)C(=O)O)cc1` [VII, p-Methoxyphenylpyruvic acid], the Km was 160 ± 70 µM.
